Measured values published in ChEMBL document CHEMBL1201862, “PubChem BioAssay data set” (2004).
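The compound was tested at five concentrations on cells cultured in 96-well plates, with a 48-hour exposure period. GI50: concentration for 50% inhibition of growth.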 Active and inactive are the calls of the source. Rule as the data show it: active = GI50 up to about 1.1 µM and inactive = higher.

Tests used:
Assay in all cases: NCI tumour cell line growth inhibition, 48 h
UACC-62 = test system: UACC-62
IGROV-1 = test system: IGROV-1
UO-31 = test system: UO-31
BT-549 = test system: BT-549
SW-620 = test system: SW-620
RPMI-8226 = test system: RPMI-8226
NCI-H522 = test system: NCI-H522
OVCAR-3 = test system: OVCAR-3
KM12 = test system: KM12
CAKI-1 = test system: CAKI-1
MDA-MB-435 = test system: MDA-MB-435
MDA-N = test system: MDA-N
A498 = test system: A498
SK-MEL-5 = test system: SK-MEL-5
EKVX = test system: EKVX
K562 = test system: K562
MDA-MB-231 = test system: MDA-MB-231
SF-268 = test system: SF-268

Measured: GI50

O=[N+]([O-])c1ccc(CSc2nn(Cc3ccc([N+](=O)[O-])cc3)cc3ncnc2-3)cc1
inactive: UACC-62 17.5 µM | IGROV-1 20.4 µM | UO-31 12.1 µM | BT-549 21 µM | SW-620 21.7 µM | RPMI-8226 14.8 µM | NCI-H522 22.3 µM | OVCAR-3 56.2 µM | KM12 30.4 µM | CAKI-1 35.2 µM | MDA-MB-435 21.1 µM | MDA-N 33 µM | A498 18.4 µM | SK-MEL-5 32 µM | EKVX 69.3 µM | K562 31.8 µM | MDA-MB-231 34.4 µM

O=C1c2c(O)cc(O)cc2C(C2OC(CO)C(O)C(O)C2O)c2cc(CO)cc(O)c21 (centres undefined)
inactive: UACC-62 > 100 µM | IGROV-1 > 100 µM | UO-31 > 100 µM | BT-549 > 100 µM | SW-620 > 100 µM | RPMI-8226 > 100 µM | OVCAR-3 > 100 µM | MDA-MB-435 > 100 µM | MDA-N > 100 µM | A498 > 100 µM | SK-MEL-5 > 100 µM | EKVX > 100 µM | K562 > 100 µM | MDA-MB-231 > 100 µM | SF-268 > 100 µM

CCn1cnc2c(NC(C)=O)ncnc21
inactive: UACC-62 > 100 µM | IGROV-1 > 100 µM | UO-31 > 100 µM | BT-549 > 100 µM | SW-620 > 100 µM | RPMI-8226 > 100 µM | NCI-H522 > 100 µM | OVCAR-3 > 100 µM | KM12 > 100 µM | CAKI-1 > 100 µM | MDA-MB-435 > 100 µM | MDA-N > 100 µM | SK-MEL-5 > 100 µM | EKVX > 100 µM | K562 > 100 µM | MDA-MB-231 > 100 µM

Cn1c(C(C#N)c2nc(Cl)ncc2Br)nc2ccccc21 (centres undefined)
inactive: IGROV-1 > 100 µM | UO-31 > 100 µM | BT-549 > 100 µM | SW-620 > 100 µM | RPMI-8226 > 100 µM | NCI-H522 > 100 µM | OVCAR-3 > 100 µM | KM12 > 100 µM | CAKI-1 > 100 µM | MDA-MB-435 > 100 µM | MDA-N > 100 µM | A498 > 100 µM | SK-MEL-5 > 100 µM | EKVX > 100 µM | MDA-MB-231 > 100 µM | SF-268 > 100 µM

CC(=O)/N=C1\NC(=O)/C(=C/c2ccc(/C=C3/C(=O)N/C(=N\C(C)=O)N3C)cc2)N1C
inactive: UACC-62 > 100 µM | IGROV-1 > 100 µM | UO-31 > 100 µM | BT-549 > 100 µM | SW-620 > 100 µM | OVCAR-3 > 100 µM | KM12 > 100 µM | CAKI-1 > 100 µM | MDA-MB-435 > 100 µM | MDA-N > 100 µM | A498 > 100 µM | SK-MEL-5 > 100 µM | EKVX > 100 µM | MDA-MB-231 > 100 µM | SF-268 > 100 µM
